Assay results: paper PMC9632241 (Antiviral Research, 2022)

Molecular target: SARS-CoV-1 M^pro (Severe acute respiratory syndrome-related coronavirus, UniProt P0C6U8)
Assay: biochemical

**Q.** With CCOC(=O)/C=C/[C@H](C[C@@H]1CCNC1=O)NC(=O)[C@@H](CC(=O)[C@@H](NC(=O)c1cc(C)on1)C(C)C)Cc1ccc(F)cc1 [rupintrivir, 4-{2-(4-fluoro-benzyl)-6-methyl-5-[(5-methyl-isoxazole-3-carbonil)-amino]-4-oxo-heptanoylamino}-5-(2-oxo-pyrrolidin-3-yl)-pentanoicacidethylester] as the compound, how does the IC50 read?
**A.** Its IC50 is 66 µM.
